Assay results from US10828300B2, “Substituted 2,4-diaminopyrimidines as kinase inhibitors” (Celgene CAR LLC, priority 2008, dated 2020).
“Also recorded” adds a separate entry of the source.

What was measured:
BTK [1] = molecular target: T1, BTK (Homo sapiens (Human), UniProt Q06187); test: Washout experiment with Ramos cells (PLCγ2 phosphorylation); type: cell-based; conditions: Ramos washout assay, 100 nM compound for 1 hour
Experimental: Washout Experiment with Ramos Cells
Ramos cells were serum starved for one hour in RPMI media +1% glutamine at 37° C. After starvation, Ramos cells were treated with 100 nM compound diluted in serum free RPMI media for 1 hour. After compound treatment, the media was removed and cells were washed with compound-free media. Subsequently, Ramos cells were washed every 2 hours and resuspended in fresh compound-free media. Cells were collected at specified timepoints, treated with 1 ug anti-human IgM (Southern Biotech cat #2022-01) for 10 minutes on ice to induce BCR signaling and then washed in PBS. Ramos cells were then lysed in Cell Extraction Buffer (Invitrogen FNN0011) supplemented with Roche complete protease inhibitor tablets (Roche 11697498001) and phosphatase inhibitors (Roche 04 906 837 001) and 18 ug total protein lysate was loaded in each lane. Inhibition of BTK kinase activity was assayed by measuring its substrate (PLCγ2) phosphorylation by western blot with phospho-specific antibodies from Cell Signaling Technologies cat#3871. The results of this experiment with compounds I-2, I-4 and I-7 are depicted in FIGS. 1, 2 and 3.

TEC kinase = TEC kinase (Homo sapiens (Human), UniProt P42680); test: Mass spectrometry for TEC kinase (tryptic digest); type: binding, Homo sapien; conditions: 3 hrs at 10× excess, peptide GCLLNFLR
TEC kinase, sequence (P42680 whole entry): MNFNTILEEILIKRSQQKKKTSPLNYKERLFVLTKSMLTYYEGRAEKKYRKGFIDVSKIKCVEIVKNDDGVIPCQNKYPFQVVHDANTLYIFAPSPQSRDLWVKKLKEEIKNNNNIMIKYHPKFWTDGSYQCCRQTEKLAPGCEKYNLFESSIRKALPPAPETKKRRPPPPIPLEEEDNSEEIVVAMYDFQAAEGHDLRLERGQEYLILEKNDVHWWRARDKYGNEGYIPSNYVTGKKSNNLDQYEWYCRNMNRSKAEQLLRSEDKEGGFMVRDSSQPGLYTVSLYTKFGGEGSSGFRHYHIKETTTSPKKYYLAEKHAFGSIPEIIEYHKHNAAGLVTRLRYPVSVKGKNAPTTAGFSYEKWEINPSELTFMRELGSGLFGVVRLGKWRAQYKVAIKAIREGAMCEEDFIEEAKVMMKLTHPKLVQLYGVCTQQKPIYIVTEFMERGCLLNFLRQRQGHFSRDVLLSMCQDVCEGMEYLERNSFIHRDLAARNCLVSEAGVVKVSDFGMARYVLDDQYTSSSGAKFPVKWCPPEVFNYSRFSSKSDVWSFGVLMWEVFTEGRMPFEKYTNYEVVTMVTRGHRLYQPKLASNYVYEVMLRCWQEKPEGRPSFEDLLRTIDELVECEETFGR
Experimental: Mass Spectrometry for TEC Kinase (Compound I-2)
(§1) TEC kinase (45 pmols; Invitrogen) was incubated with (I-2) (450 pmols) for 3 hrs at 10× excess prior to tryptic digestion. Iodoacetamide was used as the alkylating agent after compound incubation. […] For tryptic digests a 5 ul aliquot (7.5 pmols) was diluted with 15 ul of 0.1% TFA prior to micro C18 Zip Tipping directly onto the MALDI target using alpha cyano-4-hydroxy cinnamic acid as the matrix (5 mg/ml in 0.1% TFA:Acetonitrile 50:50).
(§2) For tryptic digests the instrument was set in Reflectron mode with a pulsed extraction setting of 2200. Calibration was done using the Laser Biolabs Pep Mix standard ([…], 1296.69, 1672.92, 2093.09, 2465.20). For CID/PSD analysis the peptide was selected using cursors to set ion gate timing and fragmentation occurred at a laser power about 20% higher and He was used as the collision gas for CID. Calibration for fragments was done using the P14R fragmentation calibration for the Curved field Reflectron.
Mass Spectrometry for TEC Kinase (Compound I-4)
as §1, with “(I-4)” for “(I-2)”
as §2, with “1800.” for “2200.”
Mass Spectrometry for TEC Kinase (Compound I-7) […]

JAK3 kinase = JAK3 kinase (Homo sapiens (Human), UniProt P52333); test: Mass spectrometry for Janus-3 kinase (JAK3), tryptic digest; type: binding, homosapien; conditions: 3 hrs at 10× excess, peptide LVMEYLPSGCLR
JAK3 kinase, sequence (P52333 whole entry): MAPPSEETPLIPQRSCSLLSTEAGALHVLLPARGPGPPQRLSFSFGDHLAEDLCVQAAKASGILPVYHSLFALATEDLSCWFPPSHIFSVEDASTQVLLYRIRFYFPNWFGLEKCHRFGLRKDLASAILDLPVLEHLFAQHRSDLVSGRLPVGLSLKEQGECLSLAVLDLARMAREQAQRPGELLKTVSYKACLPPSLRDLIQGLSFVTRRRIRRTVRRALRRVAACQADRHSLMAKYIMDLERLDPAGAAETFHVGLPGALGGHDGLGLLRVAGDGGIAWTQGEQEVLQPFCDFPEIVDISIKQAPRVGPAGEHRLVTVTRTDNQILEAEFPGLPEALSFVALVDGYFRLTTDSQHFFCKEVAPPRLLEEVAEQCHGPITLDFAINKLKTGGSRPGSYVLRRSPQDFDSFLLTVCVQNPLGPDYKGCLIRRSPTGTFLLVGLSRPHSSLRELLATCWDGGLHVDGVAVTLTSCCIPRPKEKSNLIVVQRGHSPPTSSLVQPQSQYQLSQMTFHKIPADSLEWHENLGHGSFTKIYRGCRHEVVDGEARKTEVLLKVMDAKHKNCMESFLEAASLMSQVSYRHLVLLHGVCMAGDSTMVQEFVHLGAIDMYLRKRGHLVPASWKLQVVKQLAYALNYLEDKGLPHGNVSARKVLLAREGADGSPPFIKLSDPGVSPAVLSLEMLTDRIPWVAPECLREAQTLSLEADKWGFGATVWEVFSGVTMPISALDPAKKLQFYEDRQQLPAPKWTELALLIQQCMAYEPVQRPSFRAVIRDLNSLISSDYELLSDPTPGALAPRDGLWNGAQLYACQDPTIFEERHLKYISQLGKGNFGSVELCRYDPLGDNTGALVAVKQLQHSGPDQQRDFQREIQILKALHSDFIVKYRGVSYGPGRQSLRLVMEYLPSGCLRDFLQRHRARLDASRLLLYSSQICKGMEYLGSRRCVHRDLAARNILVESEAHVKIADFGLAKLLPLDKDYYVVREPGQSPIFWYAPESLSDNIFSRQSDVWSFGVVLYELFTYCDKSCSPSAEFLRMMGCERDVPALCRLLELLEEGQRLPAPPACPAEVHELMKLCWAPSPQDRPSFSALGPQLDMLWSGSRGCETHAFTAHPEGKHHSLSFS
Experimental: Mass Spectrometry for Janus-3 Kinase (JAK3)
JAK3 kinase (33 pmols; Invitrogen) was incubated with (I-7) (327 pmols) for 3 hrs at 10× excess prior to tryptic digestion. Iodoacetamide was used as the alkylating agent after compound incubation. For tryptic digests a 5 ul aliquot (5.5 pmols) was diluted with 15 ul of 0.1% TFA prior to micro C18 Zip Tipping directly onto the MALDI target using alpha cyano-4-hydroxy cinnamic acid as the matrix (5 mg/ml in 0.1% TFA:Acetonitrile 50:50).
as §2

BTK [2] = molecular target: T1, BTK; test: BTK occupancy from in vitro samples by ELISA (Ramos cells, probe I-215); type: cell-based; conditions: probe I-215 ELISA
Text: Measuring BTK occupancy from in vitro samples by ELISA
In order to determine the amount of free BTK in cell or tissue lysates, an ELISA protocol was employed that utilizes a biotinylated probe compound that binds only to free, unoccupied BTK. The conjugated biotin is captured on a streptavidin-coated ELISA plate and detected with a mouse anti-BTK antibody (Becton Dickinson, Franklin Lakes, N.J., USA) and a secondary goat anti-mouse HRP antibody (Zymed, South San Francisco, Calif., USA).
All samples were prepared with equal concentrations of Biorad lysis buffer (Hercules, Calif., USA), 0.5% bovine serum albumin in PBS with 0.05% Tween-20 to give a final concentration of 1 μM I-215. Samples were incubated in a mixing plate for 1 hr at room temperature while shaking to allow probe compound I-215 to bind to free BTK. After incubation with I-215, samples were added to a washed, streptavidin-coated ELISA plate (Pierce, Rockford, Ill., USA) and incubated for 1 hr at room temperature while shaking. The plate was then washed with PBS containing 0.05% Tween-20 using an automatic plate washer. Anti-BTK antibody was prepared at 1:1000 dilution in 0.5% BSA in PBS (0.05% Tween-20) and added to the ELISA plate. The plate was incubated for 1 hr at room temperature while shaking. The plate was washed as described above and the secondary HRP antibody was prepared at 1:5000 dilution in 0.5% BSA in PBS (0.05% Tween-20). The plate was incubated and washed as described above. TMB was added to the plate, and OD650 was monitored until reaching 1 OD unit. The reaction was then stopped with addition of H2SO4. The plate was analyzed using Gen 5 software, and a 4 Parameter Logistic curve was employed to quantitate samples. Recombinant BTK (Invitrogen, Carlsbad, Calif., USA) was used for the standard curve.
A concentration designated as “A” is greater than 1 nM; a concentration designated as “B” is greater than 10 nM; and a concentration designated as “C” is greater than 50 nM.

BTK [3] = molecular target: T1, BTK; test: Washout experiment with I-7 and probe compound I-215 in Ramos cells; type: cell-based; conditions: 0.1 μM for 1 hour, then washout, probe I-215
Experimental: Washout Experiment with I-7 and Probe Compound I-215
Ramos cells were incubated with 0.1 μM I-7 or a reversible BTK inhibitor control compound in serum free media for 1 hour at 37° C. The cells were then washed in compound-free media and lysed 0, 4, 6, or 8 hours after compound removal. Cell lysates were incubated with 1 μM I-215 for 1 hour at room temperature, then overnight at 4° C. with streptavidin-coupled agarose beads. Protein was boiled off the beads and BTK association was assessed by western blot. […] In contrast, with the reversible inhibitor control, 45% of BTK protein is unbound and available to the probe at 0 hours and by 4 hours 100% of BTK protein is unbound and available to bind the probe. All samples were normalized to the DMSO-treated cells harvested at 0 hours.

BTK [4] = molecular target: T1, BTK; test: Mass spectrometry for BTK (intact protein, covalent modification); type: binding
Experimental: Mass Spectrometry for BTK
Intact BTK was incubated for 1 hr at a 10× fold excess of I-7 to protein. Aliquots (2 μl) of the samples were diluted with 10 μl of 0.1% TFA prior to micro C4 ZipTipping directly onto the MALDI target using Sinapinic acid as the desorption matrix (10 mg/ml in 0.1% TFA:Acetonitrile 20:80).

Erbb4 kinase domain = Erbb4 kinase domain (Homo sapiens (Human), UniProt Q15303); test: Mass spectrometry for ERBB4 (intact protein); type: binding; conditions: 60 minutes at 10-fold excess of compound
Erbb4 kinase domain, sequence (Q15303 718-985): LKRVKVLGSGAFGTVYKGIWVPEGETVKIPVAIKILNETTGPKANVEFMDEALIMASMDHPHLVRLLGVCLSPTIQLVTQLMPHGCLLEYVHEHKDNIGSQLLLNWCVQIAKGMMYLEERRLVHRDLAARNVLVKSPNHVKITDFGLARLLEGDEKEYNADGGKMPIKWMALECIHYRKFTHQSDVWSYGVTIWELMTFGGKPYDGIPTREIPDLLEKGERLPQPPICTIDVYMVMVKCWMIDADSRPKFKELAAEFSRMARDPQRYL
Experimental: Mass Spectrometry for ERBB4
Erbb4 kinase domain (Upstate) was incubated with compound for 60 minutes at 10-fold excess of compound I-4 and I-11 to protein. 1 μl aliquots of the samples (total volume of 4.24 ul) were diluted with 10 μl of 0.1% TFA prior to micro C4 ZipTipping directly onto the MALDI target using Sinapinic acid as the desorption matrix (10 mg/ml in 0.1% TFA:Acetonitrile 50:50). For intact protein mass measurement the instrument was set in Linear mode using a pulsed extraction setting of 16,952 for the myoglobin standard used to calibrate the instrument (Shimadzu Axima TOF^2).
Intact ErbB4 protein occurs at MH+ of 35850 with corresponding sinapinic (matrix) adducts occurring about 200 Da higher. A stochiometric incorporation of the test compound (I-4 and I-11) (Mw of 410 Da) produced a new mass peak which is approximately 410 Da higher (MH+ of 36260).

BTK [5] = molecular target: T1, BTK; test: Omnia assay protocol for potency assessment against BTK; type: biochemical
Text: Omnia Assay Protocol for Potency Assessment Against BTK

ITK = ITK (Homo sapiens (Human), UniProt Q08881); test: Omnia assay for potency assessment against active forms of ITK kinase; type: biochemical; conditions: [ITK]=10 nM, [ATP]=25 μM, [Y6-Sox]=10 μM; read-out: ITK Inhibition
ITK, sequence (Q08881 whole entry): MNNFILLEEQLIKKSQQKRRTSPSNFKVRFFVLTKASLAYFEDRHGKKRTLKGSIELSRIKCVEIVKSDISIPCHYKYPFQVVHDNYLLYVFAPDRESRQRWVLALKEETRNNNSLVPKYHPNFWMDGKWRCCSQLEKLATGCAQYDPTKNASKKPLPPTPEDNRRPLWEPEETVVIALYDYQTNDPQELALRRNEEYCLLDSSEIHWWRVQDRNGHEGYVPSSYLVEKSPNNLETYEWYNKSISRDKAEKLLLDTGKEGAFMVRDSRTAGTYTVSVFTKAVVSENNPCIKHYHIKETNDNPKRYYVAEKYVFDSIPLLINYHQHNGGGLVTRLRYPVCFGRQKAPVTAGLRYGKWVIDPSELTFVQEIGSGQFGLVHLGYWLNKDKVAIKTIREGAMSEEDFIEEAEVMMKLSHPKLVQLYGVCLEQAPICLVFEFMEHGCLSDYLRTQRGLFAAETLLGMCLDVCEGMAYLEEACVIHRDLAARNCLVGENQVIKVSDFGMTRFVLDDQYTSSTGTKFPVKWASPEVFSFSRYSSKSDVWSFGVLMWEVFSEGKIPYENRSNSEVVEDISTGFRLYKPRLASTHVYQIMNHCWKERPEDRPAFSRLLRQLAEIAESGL

EGFR-WT = EGFR-WT (Homo sapiens (Human), UniProt P00533); test: Omnia assay for potency assessment against EGFR (WT); type: biochemical; conditions: read-out: EGFR Wild Type Inhibition
EGFR-WT, sequence (P00533 25-1210): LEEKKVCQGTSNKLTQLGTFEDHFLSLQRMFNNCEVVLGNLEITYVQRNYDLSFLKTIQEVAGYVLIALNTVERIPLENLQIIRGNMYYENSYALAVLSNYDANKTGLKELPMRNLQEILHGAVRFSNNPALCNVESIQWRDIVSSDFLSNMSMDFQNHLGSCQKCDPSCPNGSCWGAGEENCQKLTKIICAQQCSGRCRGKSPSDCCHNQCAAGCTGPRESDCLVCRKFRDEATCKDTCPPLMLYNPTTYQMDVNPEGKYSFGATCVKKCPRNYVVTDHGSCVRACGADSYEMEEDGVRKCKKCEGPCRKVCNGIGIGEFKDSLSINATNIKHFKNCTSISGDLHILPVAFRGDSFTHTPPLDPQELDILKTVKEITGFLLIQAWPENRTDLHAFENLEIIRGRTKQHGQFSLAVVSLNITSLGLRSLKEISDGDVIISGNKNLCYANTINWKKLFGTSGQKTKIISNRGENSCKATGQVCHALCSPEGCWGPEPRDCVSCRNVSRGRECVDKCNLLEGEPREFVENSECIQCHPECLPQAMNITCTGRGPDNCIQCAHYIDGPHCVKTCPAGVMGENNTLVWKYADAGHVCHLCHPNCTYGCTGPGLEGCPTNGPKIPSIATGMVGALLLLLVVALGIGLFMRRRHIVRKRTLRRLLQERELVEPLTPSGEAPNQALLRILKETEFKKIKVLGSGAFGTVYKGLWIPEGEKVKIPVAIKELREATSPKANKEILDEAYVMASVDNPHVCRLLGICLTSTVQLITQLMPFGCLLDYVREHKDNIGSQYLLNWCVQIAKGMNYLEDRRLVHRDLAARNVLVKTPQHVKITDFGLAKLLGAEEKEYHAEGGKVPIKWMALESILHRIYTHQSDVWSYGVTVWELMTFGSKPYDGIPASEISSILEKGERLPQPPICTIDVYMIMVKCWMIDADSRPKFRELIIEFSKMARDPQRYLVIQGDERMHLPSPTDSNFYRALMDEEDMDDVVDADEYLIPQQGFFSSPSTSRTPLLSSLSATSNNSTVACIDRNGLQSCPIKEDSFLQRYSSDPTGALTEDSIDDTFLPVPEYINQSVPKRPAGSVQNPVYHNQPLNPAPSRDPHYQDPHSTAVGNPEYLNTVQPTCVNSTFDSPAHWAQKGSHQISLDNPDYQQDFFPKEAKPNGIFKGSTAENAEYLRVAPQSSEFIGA

BTK [6] = molecular target: T1, BTK; test: BTK Ramos cellular assay (phosphorylation of BTK substrate PLCγ2); type: cell-based; conditions: Ramos cells, anti-IgM stimulated, read-out: BTK Inhibition (BTK Ramos Cellular Inhibition Data)
Experimental: Ramos cells were grown in suspension in T225 flasks, spun down, resuspended in 50 ml serum-free media and incubated for 1 hour. […] Ramos cells were incubated with compound for 1 hour, washed again and resuspended in 100 ul serum-free media. Cells were then stimulated with 1 μg of goat F(ab′)2 Anti-Human IgM and incubated on ice for 10 minutes to activate B cell receptor signaling pathways. After 10 minutes, the cells were washed once with PBS and then lysed on ice with Invitrogen Cell Extraction buffer. 16 μg total protein from lysates were loaded on gel and blots were probed for phosphorylation of the BTK substrate PLCγ2.

T1 sequence (Q06187 whole entry): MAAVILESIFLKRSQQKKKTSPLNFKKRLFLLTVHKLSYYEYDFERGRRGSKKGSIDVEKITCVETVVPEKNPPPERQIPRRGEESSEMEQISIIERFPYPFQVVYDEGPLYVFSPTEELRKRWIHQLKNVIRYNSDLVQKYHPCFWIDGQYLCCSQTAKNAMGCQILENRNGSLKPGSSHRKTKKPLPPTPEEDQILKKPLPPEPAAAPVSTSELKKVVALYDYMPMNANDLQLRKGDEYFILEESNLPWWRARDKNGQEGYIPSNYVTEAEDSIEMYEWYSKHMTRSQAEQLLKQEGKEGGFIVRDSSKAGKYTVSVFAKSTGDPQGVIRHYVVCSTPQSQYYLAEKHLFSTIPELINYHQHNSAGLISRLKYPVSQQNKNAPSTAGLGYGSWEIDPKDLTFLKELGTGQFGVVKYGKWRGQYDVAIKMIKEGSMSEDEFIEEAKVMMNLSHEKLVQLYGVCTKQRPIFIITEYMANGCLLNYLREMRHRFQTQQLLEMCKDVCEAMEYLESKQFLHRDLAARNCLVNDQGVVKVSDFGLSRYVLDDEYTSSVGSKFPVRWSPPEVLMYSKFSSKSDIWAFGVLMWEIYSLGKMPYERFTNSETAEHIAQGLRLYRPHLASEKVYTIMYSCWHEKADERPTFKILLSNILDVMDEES

Compound	BTK Inhibition Type (BTK [1])	covalent modification of TEC kinase by mass spectrometry (TEC kinase)	covalent modification of JAK3 by mass spectrometry (JAK3 kinase)	covalent modification of ErbB4 by mass spectrometry (Erbb4 kinase domain)	further results
C=CC(=O)Nc1cccc(Nc2ncc(C)c(Nc3cccc(C)c3)n2)c1 [Compound I-2, N-(3-(5-methyl-4-(m-tolylamino)pyrimidin-2-ylamino)phenyl) acrylamide]	irreversible	covalent modification of TEC kinase at Cys449; also recorded: reaction was complete			
C=CC(=O)Nc1cccc(Nc2nc(Nc3ccccc3)ncc2C)c1 [Compound I-7, N-(3-(5-methyl-2-(phenylamino)pyrimidin-4-ylamino)phenyl) acrylamide]	irreversible	reaction was complete; also recorded: covalent modification of TEC kinase at Cys449	reaction was not entirely complete; also recorded: covalent modification of JAK-3 kinase at Cys909		concentration at which >50% of BTK is occupied (BTK [2]): A (greater than 1 nM); concentration at which >90% of BTK is occupied (BTK [2]): B (greater than 10 nM); time BTK protein remains occupied after compound removal (BTK [3]): over 8 hours; positive shift of centroid mass of BTK (BTK [4]; intact BTK incubated 1 hr with 10× fold excess of compound): about 371.1 Da; covalent modification of BTK by mass spectrometry (BTK [4]; intact BTK, 1 hr, 10× fold excess of compound): complete modification; also recorded: covalent modification of BTK
Cc1cccc(Nc2nc(Nc3cccc(NC(=O)/C=C/CN(C)C)c3)ncc2F)c1 [Compound I-4, (E)-4-(dimethylamino)-N-(3-(5-fluoro-4-(m-tolylamino)pyrimidin-2-ylamino)phenyl)but-2-enamide]	irreversible	reaction was complete; also recorded: covalent modification of TEC kinase at Cys449		covalent modification of ErbB4	
Cc1cnc(Nc2cccc(S(N)(=O)=O)c2)nc1Nc1ccc2c(c1)CCN(C(=O)CCl)C2 [Compound I-11, 3-(4-(2-(2-chloroacetyl)-1,2,3,4-tetrahydroisoquinolin-6-ylamino)-5-methylpyrimidin-2-ylamino)benzenesulfonamide]			measurable modification	covalent modification of ErbB4	
CCC(=O)Nc1cccc(Nc2nc(Nc3ccccc3)ncc2C)c1 [I^R-7, N-(3-(5-methyl-2-(phenylamino)pyrimidin-4-ylamino)phenyl) propionamide]					biochemical activity against BTK (BTK [5]): biochemically inactive against BTK
C=CC(=O)Nc1cccc(Oc2nc(Nc3ccc(OC)nc3)ncc2C(=O)NC2CC2)c1 [Compound I-176, 4-(3-acrylamidophenoxy)-2-(6-methoxypyridin-3-ylamino)-pyrimidine-5-carboxylic acid cyclopropylamide]					IC50 (ITK): 10 to 100 nM; IC50 (EGFR-WT): < 10 nM; IC50 (BTK [5]; Omnia assay, [BTK]=5 nM, read-out: BTK Inhibition): < 10 nM; IC50 (BTK [6]): 100 to 1000 nM
